ChEMBL document CHEMBL3856226, “N-(2-Alkyleneimino-3-phenylpropyl)acetamide Compounds and Their Use against Pain and Pruritus via Inhibition of TRPA1 Channels” (ACS Med Chem Lett, 2016)

molecular target: Transient receptor potential cation channel subfamily A member 1 (Homo sapiens, UniProt O75762); experiment: Inhibition of cinnamaldehyde-activated full length human TRPA1 channel expressed in 293T-Rex cells monitored at 5 sec interval by manual patch clamp electrophysiological method; type: cell-based
Sequence (O75762 whole entry): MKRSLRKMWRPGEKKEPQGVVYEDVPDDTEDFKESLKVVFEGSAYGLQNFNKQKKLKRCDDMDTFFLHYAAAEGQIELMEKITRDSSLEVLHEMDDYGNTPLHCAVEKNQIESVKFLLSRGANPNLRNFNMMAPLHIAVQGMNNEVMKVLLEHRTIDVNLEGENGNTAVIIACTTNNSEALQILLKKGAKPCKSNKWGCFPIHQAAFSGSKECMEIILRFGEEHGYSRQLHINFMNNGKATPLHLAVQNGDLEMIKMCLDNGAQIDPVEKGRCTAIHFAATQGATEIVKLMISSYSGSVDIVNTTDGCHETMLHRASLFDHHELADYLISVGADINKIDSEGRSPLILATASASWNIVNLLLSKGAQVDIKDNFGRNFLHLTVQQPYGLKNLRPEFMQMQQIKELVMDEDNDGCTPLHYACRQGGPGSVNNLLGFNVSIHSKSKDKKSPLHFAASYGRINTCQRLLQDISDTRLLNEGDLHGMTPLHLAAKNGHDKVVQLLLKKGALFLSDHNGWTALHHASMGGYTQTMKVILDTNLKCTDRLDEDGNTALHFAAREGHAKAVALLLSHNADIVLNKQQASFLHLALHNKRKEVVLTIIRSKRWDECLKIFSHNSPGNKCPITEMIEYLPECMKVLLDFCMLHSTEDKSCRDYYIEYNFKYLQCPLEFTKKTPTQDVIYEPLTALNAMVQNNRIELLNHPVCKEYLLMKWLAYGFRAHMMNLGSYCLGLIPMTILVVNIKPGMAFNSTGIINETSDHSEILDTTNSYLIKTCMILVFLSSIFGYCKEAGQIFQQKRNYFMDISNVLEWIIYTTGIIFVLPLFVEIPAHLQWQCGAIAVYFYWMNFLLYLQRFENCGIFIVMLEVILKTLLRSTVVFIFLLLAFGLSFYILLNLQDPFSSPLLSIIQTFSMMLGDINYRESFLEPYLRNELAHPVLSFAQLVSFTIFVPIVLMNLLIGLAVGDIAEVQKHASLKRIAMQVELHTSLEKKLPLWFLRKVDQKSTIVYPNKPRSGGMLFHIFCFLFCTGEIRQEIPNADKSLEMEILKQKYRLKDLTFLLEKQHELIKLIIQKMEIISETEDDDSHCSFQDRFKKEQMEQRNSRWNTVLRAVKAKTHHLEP

Row | Compound | IC50 [nM]
1 | CC(C)(C(=O)NCC(Cc1ccccc1)N1CCC(O)(C(F)(F)F)CC1)c1ccccc1 (stereo not drawn) | 43
2 | O=C(NCC(Cc1ccccc1)N1CCC(O)(C(F)(F)F)CC1)C1(c2ccc(F)cc2)CCCCC1 (stereo not drawn) | 4
3 | O=C(NCC(Cc1ccccc1)N1CCC(C(F)(F)F)CC1)C1(c2ccc(Cl)cc2)CCCC1 (stereo not drawn) | 7

Continued, values first:

Row | IC50 [nM] | Compound
4 | 1 | O=C(NCC(Cc1ccccc1)N1CCC(O)(C(F)(F)F)CC1)C1(c2ccc(Cl)cc2)CCCC1 (stereo not drawn)
5 | 63 | N#Cc1ccc(CC(CNC(=O)C2(c3ccc(Cl)cc3)CCCC2)N2CCC(O)(C(F)(F)F)CC2)cc1 (stereo not drawn)
6 | 14 | O=C(NCC(Cc1ccccc1)N1CCC(O)(C(F)(F)F)CC1)C1(c2ccc(Cl)cc2)CC1 (stereo not drawn)
7 | 2 | O=C(NCC(Cc1ccc(F)cc1)N1CCC(O)(C(F)(F)F)CC1)C1(c2ccc(Cl)cc2)CC1 (stereo not drawn)
8 | 12 | O=C(NCC(Cc1ccc(Br)cc1)N1CCC(O)(C(F)(F)F)CC1)C1(c2ccc(Cl)cc2)CCCC1 (stereo not drawn)
